# Key:
# [1] = test system: MiaPaca-2 xenograft tumor; test: MiaPaca2 human pancreatic tumor xenograft in nude mice, subcutaneous treatment; assay type: in vivo, mouse
# Method: The test was carried out comparing the anti-tumor activity of cortexolone 17α-benzoate at two different dosages (8.0 mg/kg, corresponding approximately at 230 μM, and 40 mg/kg, corresponding approximately at 1150 μM), versus the vehicle (i.e. 0.4% (v/v) tween 80 and 0.5% (w/v) carboxymethylcellulose in normal saline) and versus the comparator Cyproterone Acetate at two different dosages (7.4 mg/kg and 37 mg/kg).
# 1×10^6 MiaPaca-2 cells suspended in matrigel were subcutaneously injected into 6 week old athymic nude mice.
# The treatment with the tested compounds, with the vehicle and with the comparative compound, was initiated after the tumor volume has reached 50 mm^3 after transplantation. All compounds were injected 100 μL/mouse subcutaneously of low dose solution (approximately 230 μM) or 100 μL/mouse of high dose solution (approximately 1150 μM) of cortexolone 17α-benzoate, vehicle and cyproterone acetate, respectively. Compounds and controls were administered subcutaneously daily for 28 days.
# Tumors were measured every 4 days with a digital caliper.
# The results are plotted in FIG. 1 as average change in tumor volume relative to the start of treatment. Tumor volume was calculated according to the formula 0.5236(r1)^2(r2) where r1<r2.
# The test was carried out comparing the anti-tumor activity of cortexolone 17α-valerate-21-propionate (CB-03-10) at two different dosages (approximately 8.6 mg/kg and 43 mg/kg) versus the vehicle (i.e. 0.4% (v/v) tween 80 and 0.5% (w/v) carboxymethylcellulose in normal saline) and versus the comparator Cyproterone Acetate at two different dosages (7.4 mg/kg and 37 mg/kg).
# The treatment with the tested compound, with the vehicle and with the comparative compound was initiated after the tumor has reached a volume of 50 mm^3 after implantation, injecting subcutaneously 100 μL/mouse of low dose solution (approximately 230 μM) or 100 μL/mouse of high dose solution (approximately 1150 μM) of cortexolone 17α-valerate-21-propionate (CB-03-10), vehicle and cyproterone acetate, respectively. Compounds and controls were administered subcutaneously daily for 28 days.
# The results are plotted in FIG. 2 as average change in tumor volume relative to the start of treatment. Tumor volume was calculated according to the formula 0.5236(r1)^2(r2) where r1<r2.
# CPA a well-known anti-androgen was used as control. Briefly 1×10^6 MiaPaca2 cells suspended in matrigel were subcutaneously (SC) injected into 6 week old male athymic nude mice. Tumors were measured every 4 days with a digital caliper. Tumor volume was calculated according to the formula: 0.5236(r1) 2(r2) where r1<r2. Treatment with CB-03-10 and controls compounds was initiated after the tumor had reached 50 mm^3. Compounds diluted in DMSO/2-hydroxypropyl b-cyclodextrin (vehicle) were injected subcutaneously (SC) daily (100 μL/mouse) at the concentration of 40 mg/Kg daily for 28 consecutive days.
# LNCaP xenograft tumor = test: LNCaP human prostate cancer xenograft in nude mice, oral dosing; assay type: in vivo, mouse
# Method: 3×10^6 LNCaP cells suspended in matrigel were subcutaneously injected (on the right flank) into 6 week old male athymic nude mice. Tumors were measured as described above. Treatment with CB-03-10 and controls compounds was initiated after the tumor had reached 50 mm^3. […] Oral dosing was daily (100 mg/Kg in 200 μL/mouse) for 28 consecutive days. Results were plotted as average change in tumor volume relative to the start of treatment.
# [2] = test system: Caspase 8, 9 and 3/7 in MiaPaca2 cells; test: Caspase activity in MiaPaca2 cells; assay type: cell-based, human
# Method: From previous studies was determined that CB-03-10 induces apoptosis using Annexin V staining in MiaPaca2 cells. To better analyze the phenomenon the enzymatic activity of Caspase 8 (initiator caspase for Extrinsic Pathway) and Caspase 9 (initiator caspase for Intrinsic Pathway) and of Caspases 3 and 7 (effector caspases) were measured.
# After 24 hours test compounds were added to cells, Gemcitabine (a known pancreatic cancer chemotherapeutic agent) and DMSO were used as positive and negative control, respectively. After 8, 24, & 48 hours incubation with test compounds, cells were lysed in buffer containing the caspase 3/7 or 8 or 9 substrate and a stable luciferase in proprietary buffers. The lysates were transferred to white opaque plates before measuring luminescence in a Tecan Safire instrument. Parallel plates treated identically, were used to determine viable cells. All caspase activities were corrected for the number of viable cells.
# LNCaP cells = test: LNCaP cell viability in the PSA secretion experiment; assay type: cell-based; conditions: Homo sapiens, 48 hours, same cells as PSA assay
# Method: Prostate-specific antigen, or PSA, is a protein produced by cells of the prostate gland. The PSA test measures the level of PSA in a person's blood. The blood level of PSA is often elevated in men with prostate cancer and it used as surrogate marker to test prostate cancer progression in human population. […] After 48 hours incubation with test compounds, supernatants were harvested and tested with an Elisa assay for PSA and same cells were lysed for cell viability assessment.
# [3] = Example 22, 40 mg/Kg SC daily for 28 days
structure (smiles),measurement,setting,value
"CCCCC(=O)O[C@]1(C(=O)COC(=O)CC)CC[C@H]2[C@@H]3CCC4=CC(=O)CC[C@]4(C)[C@H]3CC[C@@]21C [CB-03-10, cortexolone 17α-valerate-21-propionate]","pancreatic tumor size increase relative to the initial size, during the treatment period","[1]; Example 22, 40 mg/Kg SC daily for 28 consecutive days",less than 5 fold
same,Median survival,[1]; [3],70 days
same,tumor size increase 14 days after treatment was stopped,[1]; [3],6 fold
same,pancreatic tumor size increase relative to the start of treatment,"[1]; Examples 5 and 6, SC daily for 28 days, test compounds at high dose (approximately 1150 μM, 100 μL/mouse), Cyproterone Acetate treatment groups 7.4 and 37 mg/kg",less than 5 fold
same,average tumor volume smaller than in the vehicle group,"LNCaP xenograft tumor; 6 weeks after treatment was stopped, oral 100 mg/Kg",3.6 times
same,statistical significance of tumor growth versus vehicle,"LNCaP xenograft tumor; FIG. 16, oral gavage",statistically significantly different from day 7 up to day 60
same,Caspase 3/7 induction,"[2]; 8, 24, 48 hours",already at 8 hours at and a really high level after 48 hours incubation
same,increase in Caspase 8 and 9 activity compared to control,"[2]; 20 or 50 μM, 8, 24, 48 hours, corrected for viable cells",≤ 7 fold
same,IC50,LNCaP cells,11 µM

# — patent US10183030B2, “17α,21-diesters of cortexolone for use in the treatment of tumors” (COSMO TECHNOLOGIES LTD., priority 2014, dated 2019)
